Reference: patent publication US12576099B2, “Ribose-modified cap analog and use thereof” (Beijing Youcare Kechuang Pharmaceutical Technology Co., Ltd., priority 2024, dated 2026)

Key:
[1] = target: T1, T7 RNA polymerase (Escherichia phage T7, UniProt P00573); assay: In vitro transcription yield of mRNA using cap analogs; assay type: biochemical; conditions: for Yield per unit template: in vitro transcription, 1 μg DNA template, 37° C., 2 hours
Method: • (1) Capping synthesis using cap analogs
The plasmid was first linearized with plasmid linearizing enzyme, and then the linearized plasmid was purified. • (2) In vitro transcription and synthesis of mRNA
(§1) During the experiment, the volume of materials required for the system was first calculated, and then sample addition was conducted. The system was first added with sterile enzyme-free water, followed by the sequential addition of 10× buffer, NTPs, and cap analogs, mixed well, and gently centrifuged. Nuclease inhibitors, inorganic pyrophosphatase, T7RNA polymerase, and linearized DNA templates were then added thereto. The system was mixed well, gently centrifuged, and incubated at 37° C. After 2 hours of incubation, the system was added with 1 U of DNase I and incubated at 37° C. for another 30 minutes. The mRNA precipitate was then washed with 75% ethanol, and after the ethanol was briefly evaporated to dryness, the mRNA was redissolved in sterile enzyme-free water. • (3) The transcription product was purified, and the in vitro transcription yield of mRNA was recorded. • (4) The obtained mRNA was subjected to an annealing reaction with a probe.

[2] = target: T1, T7 RNA polymerase; assay: Capping rate of mRNA transcription initiated by cap analogs (LC-MS); assay type: biochemical; conditions: for Capping rate: LC-MS of mRNA 5′ fragment
Method: as §1
The annealing reaction was performed in a PCR instrument: 95° C. for 5 minutes; 65° C. for 2 minutes; 55° C. for 2 minutes; 40° C. for 2 minutes; 22° C. for 2 minutes. • (5) Magnetic bead pretreatment and probe binding: 100 μL of magnetic beads was placed on a magnetic frame for pretreatment. The magnetic bead solution was added with 120 μL of sample and incubated at room temperature for 30 minutes with slow mixing. • (6) mRNA splicing and obtaining the mRNA 5′ single-strand sequence bound to the probe
The mixture was added with 20 μL of RNase H (5 U/μL) and incubated at 37° C. for 3 hours with mixing every half hour. After incubation, the magnetic beads were washed and then added with 100 μL of 75% methanol heated to 80° C. The mixture was heated to 80° C. on a heating plate, held for 3 minutes, then placed on a magnetic frame to aspirate the supernatant, and dried at room temperature for 45 minutes to a volume of 10 μL using a centrifugal evaporator. The sample was then resuspended in 50 μL of 100 μM EDTA/1% MeOH and ready for LC-MS analysis to determine the capping of RNA in the transcription reaction. Since there is a significant difference in molecular weight between capped and uncapped bases, the capping rate of mRNA transcription initiated by different cap analogs can be determined based on the difference in molecular mass.

[3] = target: T2, DCP2 enzyme (Schizosaccharomyces pombe, UniProt O13828); assay: Decapping enzyme stability test; assay type: biochemical; conditions: for Decapping rate (%) of DCP2 enzyme: 50 U mRNA decapping enzyme, 37° C., 45 minutes
T2 construct: purchased New England Biolabs
T2 sequence (O13828 1-243 limits assumed): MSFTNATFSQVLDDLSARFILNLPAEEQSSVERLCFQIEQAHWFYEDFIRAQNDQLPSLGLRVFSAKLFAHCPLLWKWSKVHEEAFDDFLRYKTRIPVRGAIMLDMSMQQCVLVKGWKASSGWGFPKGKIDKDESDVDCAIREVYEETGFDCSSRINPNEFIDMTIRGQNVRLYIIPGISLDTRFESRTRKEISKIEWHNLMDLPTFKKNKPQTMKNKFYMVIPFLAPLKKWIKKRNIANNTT
T2 sequence (Q9P805 1-127 partner): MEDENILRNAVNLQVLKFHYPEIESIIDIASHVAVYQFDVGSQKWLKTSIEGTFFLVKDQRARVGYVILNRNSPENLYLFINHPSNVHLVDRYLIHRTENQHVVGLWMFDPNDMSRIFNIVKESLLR
T2 sequence (Q10108 155-180 partner limits assumed): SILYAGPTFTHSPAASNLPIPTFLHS
In short: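 PAGE-purified RNA ([…]) incubated with 50 U mRNA decapping enzyme in 1×MDE buffer at 37° C. for 45 minutes. Products resolved by PAGE, SYBR Green II stained; decapping rate derived from capped-to-decapped band intensity ratio.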

[4] = test system: BALB/C mice; assay: In vivo imaging of Fluc-mRNA LNP expression in mice
Method: The LNP preparation containing 5 μg of cap analog-transcribed Fluc-mRNA was intramuscularly injected into female BALB/C mice aged 4 to 6 weeks and weighing 17 to 19 g. At specific time points after administration (6 hours, 12 hours, 24 hours, 48 hours, 96 hours, and 168 hours), the mice were intraperitoneally injected with fluorescence imaging substrate. The mice were then allowed to move freely for 5 minutes, followed by detection of the total radiation intensity of the protein expressed by LNP-carrying mRNA in the mice using an IVIS Spectrum small-animal in vivo imaging system (corresponding to the amount of protein expression).
In the in vivo imaging experiments in mice, the multiple of the total radiation intensity for each group of mice relative to the m6A group is shown in Table 8 (where the total radiation intensity is represented as the given value×10^8 p/s).

[5] = 6 h, 5 μg Fluc-mRNA LNP intramuscular, mice
[6] = 12 h, 5 μg Fluc-mRNA LNP intramuscular, mice
[7] = 24 h, 5 μg Fluc-mRNA LNP intramuscular, mice
[8] = 48 h, 5 μg Fluc-mRNA LNP intramuscular, mice
[9] = 96 h, 5 μg Fluc-mRNA LNP intramuscular, mice
[10] = 168 h, 5 μg Fluc-mRNA LNP intramuscular, mice

T1 sequence (P00573 whole entry): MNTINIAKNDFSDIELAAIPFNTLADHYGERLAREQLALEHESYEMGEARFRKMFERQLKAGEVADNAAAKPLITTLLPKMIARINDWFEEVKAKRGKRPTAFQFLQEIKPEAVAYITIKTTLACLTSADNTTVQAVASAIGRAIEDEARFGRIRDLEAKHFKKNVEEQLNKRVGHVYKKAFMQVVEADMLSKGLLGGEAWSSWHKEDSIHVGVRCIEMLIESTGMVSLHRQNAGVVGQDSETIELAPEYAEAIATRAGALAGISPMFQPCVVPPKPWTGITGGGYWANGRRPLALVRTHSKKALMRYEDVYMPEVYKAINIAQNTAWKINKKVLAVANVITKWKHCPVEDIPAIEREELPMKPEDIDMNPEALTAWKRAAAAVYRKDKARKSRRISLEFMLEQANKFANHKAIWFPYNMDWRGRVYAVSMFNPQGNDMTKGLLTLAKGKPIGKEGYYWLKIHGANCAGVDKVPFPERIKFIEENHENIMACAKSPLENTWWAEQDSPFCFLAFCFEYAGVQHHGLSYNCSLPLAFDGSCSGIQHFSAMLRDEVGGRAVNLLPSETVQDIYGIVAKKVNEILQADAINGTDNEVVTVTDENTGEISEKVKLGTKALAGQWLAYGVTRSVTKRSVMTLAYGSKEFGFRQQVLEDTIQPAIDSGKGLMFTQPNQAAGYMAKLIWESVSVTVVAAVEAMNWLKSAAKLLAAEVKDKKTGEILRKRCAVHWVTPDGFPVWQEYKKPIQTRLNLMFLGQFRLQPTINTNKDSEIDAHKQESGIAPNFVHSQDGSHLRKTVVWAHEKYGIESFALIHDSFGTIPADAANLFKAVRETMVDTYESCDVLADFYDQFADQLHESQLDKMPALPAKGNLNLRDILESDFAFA

SMILES | Yield per unit template [1] | Increase relative to 5227 (in vitro transcription yield) [1] | Capping rate [2] | Increase relative to 5227 (capping rate) [2] | Decapping rate (%) of DCP2 enzyme [3] | Decrease relative to N-7113 (decapping rate) [3] | Multiple of total radiation intensity relative to m6A ([4]; 6 h) | Total radiation intensity [4, 5] | Multiple of total radiation intensity relative to m6A ([4]; 12 h) | Total radiation intensity [4, 6] | Multiple of total radiation intensity relative to m6A ([4]; 24 h) | Total radiation intensity [4, 7] | Multiple of total radiation intensity relative to m6A ([4]; 48 h) | Total radiation intensity [4, 8] | Multiple of total radiation intensity relative to m6A ([4]; 96 h) | Total radiation intensity [4, 9] | Total radiation intensity [4, 10] | further results
CCN(CC)C(=O)[C@H]1[C@@H](O)[C@H]([n+]2cn(C)c3c(=O)[nH]c(N)nc32)O[C@@H]1COP(=O)(O)OP(=O)(O)OP(=O)(O)OC[C@H]1O[C@@H](n2cnc3c(N)ncnc32)[C@H](OC)[C@@H]1OP(=O)(O)OC[C@H]1O[C@@H](n2cnc3c(=O)[nH]c(N)nc32)[C@H](O)[C@@H]1O [YK-CAP-111] | 173.5 µg | 29.3% | 98.1% | 36.4% | 11.5% | 32.3% | 3.7 | 8.61 ×108 p/s | 4.4 | 9.34 ×108 p/s | 4.2 | 2.75 ×108 p/s | 3.8 | 1.95 ×108 p/s | 1.1 | 0.27 ×108 p/s | 0.03 ×108 p/s | Transcription yield, times that of YK-CAP-101 ([1]; relative to YK-CAP-101): 5.3 times; Transcription yield, times that of YK-CAP-102 ([1]; relative to YK-CAP-102): 3.9 times; Transcription yield, times that of YK-CAP-103 ([1]; relative to YK-CAP-103): 2.0 times; Transcription yield, times that of YK-CAP-104 ([1]; relative to YK-CAP-104): 2.4 times; Transcription yield, times that of YK-CAP-105 ([1]; relative to YK-CAP-105): 2.1 times; In vitro transcription yield of mRNA higher than that of compound 14 ([1]; relative to compound 14): 40.8%; Capping rate, times that of YK-CAP-101 ([2]; relative to YK-CAP-101): 2.3 times; Capping rate, times that of YK-CAP-102 ([2]; relative to YK-CAP-102): 3.2 times; Capping rate, times that of YK-CAP-103 ([2]; relative to YK-CAP-103): 1.4 times; Capping rate, times that of YK-CAP-104 ([2]; relative to YK-CAP-104): 1.3 times; Capping rate, times that of YK-CAP-105 ([2]; relative to YK-CAP-105): 1.4 times; Capping rate higher than that of compound 14 ([2]; relative to compound 14): 25.3%; Total radiation intensity ([4]; at 12 hours): 9.34 ×10^8 p/s; Total radiation intensity, times that of N-7113 ([4]; at 12 hours): 2.2 times; Total radiation intensity, times that of YK-CAP-101 ([4]; at 12 hours): 9.7 times; Total radiation intensity ([4]; at 48 hours): 1.95 ×10^8 p/s; Total radiation intensity, times that of N-7113 ([4]; at 48 hours): 4.0 times; Total radiation intensity, times that of YK-CAP-101 ([4]; at 48 hours): 10.3 times
CO[C@@H]1[C@H](OP(=O)(O)OC[C@H]2O[C@@H](n3cnc4c(=O)[nH]c(N)nc43)[C@H](O)[C@@H]2O)[C@@H](COP(=O)(O)OP(=O)(O)OP(=O)(O)OC[C@H]2O[C@@H]([n+]3cn(C)c4c(=O)[nH]c(N)nc43)[C@H](O)[C@@H]2C(C)F)O[C@H]1n1cnc2c(N)ncnc21 (some centres unmarked) [YK-CAP-109] | 168.1 µg | 25.3% | 95.2% | 32.4% | 17.3% | 26.5% | 2.6 | 6.04 ×108 p/s | 2.8 | 5.84 ×108 p/s | 2.8 | 1.85 ×108 p/s | 1.0 | 0.54 ×108 p/s | 2.7 | 0.14 ×108 p/s | 0.03 ×108 p/s | 
CO[C@@H]1[C@H](OP(=O)(O)OC[C@H]2O[C@@H](n3cnc4c(=O)[nH]c(N)nc43)[C@H](O)[C@@H]2O)[C@@H](COP(=O)(O)OP(=O)(O)OP(=O)(O)OC[C@H]2O[C@@H]([n+]3cn(C)c4c(=O)[nH]c(N)nc43)[C@H](O)[C@]2(C)NC(C)=O)O[C@H]1n1cnc2c(N)ncnc21 [YK-CAP-106] | 155.5 µg | 15.9% | 95.3% | 32.5% | 17.3% | 26.5% | 2.5 | 5.88 ×108 p/s | 3.2 | 6.85 ×108 p/s | 2.7 | 1.76 ×108 p/s | 1.0 | 0.53 ×108 p/s | 2.6 | 0.11 ×108 p/s | 0.03 ×108 p/s | 
CO[C@@H]1[C@H](OP(=O)(O)OC[C@H]2O[C@@H](n3cnc4c(=O)[nH]c(N)nc43)[C@H](O)[C@@H]2O)[C@@H](COP(=O)(O)OP(=O)(O)OP(=O)(O)OC[C@H]2O[C@@H]([n+]3cn(C)c4c(=O)[nH]c(N)nc43)[C@H](O)[C@@H]2C(C)NC(C)=O)O[C@H]1n1cnc2c(N)ncnc21 (some centres unmarked) [YK-CAP-108] | 151.8 µg | 13.1% | 95.8% | 33.2% | 16.3% | 27.5% | 2.7 | 6.42 ×108 p/s | 2.8 | 6.03 ×108 p/s | 2.6 | 1.70 ×108 p/s | 2.0 | 1.04 ×108 p/s | 1.3 | 0.19 ×108 p/s | 0.02 ×108 p/s | 
